In patent US11076595B2, “1-(n,n-disubstituted carbamoyl) 4-(substituted sulfonyl)triazolin-5-one derivative, 4-(n,n-disubstituted carbamoyl) 1-(substituted sulfonyl)triazolin-5-one derivative, and herbicide containing said derivative as active ingredient” (HOKKO CHEMICAL INDUSTRY CO., LTD., priority 2017, dated 2021):

Experiments:
Assay in all cases: Test Example 11: herbicidal effect test by soil treatment in paddy field
Assay type in all cases: in vivo
Conditions in all cases: 120 g/10a active ingredient, 14 days after treatment
[1] = tested on: Monochoria vaginalis
Description: (§1) A Wagner pot having an area of 1/10000 are was filled with paddy field soil and after adding water, a chemical fertilizer (N:P:K=17:17:17) was mixed, followed by puddling. Thereafter, 30 grains of each of Echinochloa crus-galli, broad-leaved weed (Lindernia pyxidaria, Monochoria vaginalis) and Scirpus juncoides seeds were sown to a depth of 0 to 1 cm. Immediately after the sowing, the pot was flooded, and the depth of water was kept at about 3 cm. The pot was subsequently managed in a glass greenhouse. Just after that, an emulsifiable concentrate prepared according to Formulation Example 15 by using the compound shown in Table 9 below was diluted with water, and a predetermined amount of the water-diluted formulation was added dropwise. The application rate of the active ingredient, by conversion, corresponded to 120 g per 10 are.
(§2) This test was performed with two replications per one formulation concentration plot, and 14 days after the formulation treatments, the weed suppression rate (%) was determined according to the following equation (Math. 2). Weed suppression rate (%)=(1−average dry weight (g) of plants in treated plots/average dry weight (g) of plants in untreated plots)×100 [Math. 2]

[2] = tested on: Scirpus juncoides
Description: as §1, §2

[3] = tested on: Lindernia pyxidaria
Description: as §1, §2

[4] = tested on: Echinochloa crus-galli
Description: as §1, §2

| Compound | Weed suppression rate (%) Monochoria vaginalis [1] [%] | Weed suppression rate (%) Scirpus juncoides [2] [%] | Weed suppression rate (%) Lindemia pyxidaria [3] [%] | Weed suppression rate (%) Echinochloa crus-galli [4] [%] |
| --- | --- | --- | --- | --- |
| CC(C)N(C(=O)n1cnn(S(=O)(=O)CCl)c1=O)c1ccc(C(F)(F)F)cc1F [Compound 11-126] | 60 | 30 | 100 | 100 |
| Cc1cc(F)ccc1N(C(=O)n1cnn(S(=O)(=O)c2ccccc2F)c1=O)C(C)C [Compound 11-415] | 70 | 30 | 70 | 80 |
| CC(C)N(C(=O)n1cnn(S(=O)(=O)c2cccc(F)c2)c1=O)c1ccc(F)cc1Cl [Compound 11-445] | 60 | 100 | 70 | 100 |
| Cc1cc(Cl)ccc1N(C(=O)n1cnn(S(=O)(=O)c2ccc(F)cc2)c1=O)C(C)C [Compound 11-490] | 80 | 90 | 80 | 90 |
| Cc1cc(F)ccc1N(C(=O)n1cnn(S(=O)(=O)c2ccccc2Cl)c1=O)C(C)C [Compound 11-525] | 90 | 60 | 90 | 60 |
| Cc1cc(Cl)ccc1N(C(=O)n1cnn(S(=O)(=O)c2ccccc2Cl)c1=O)C(C)C [Compound 11-527] | 80 | 90 | 80 | 90 |
| CC(C)N(C(=O)n1cnn(S(=O)(=O)c2cccc(Cl)c2)c1=O)c1ccccc1 [Compound 11-539] | 40 | 40 | 90 | 80 |
| CC(C)N(C(=O)n1cnn(S(=O)(=O)c2cccc(Cl)c2)c1=O)c1cccc(F)c1F [Compound 11-549] | 100 | 100 | 90 | 80 |
| CC(C)N(C(=O)n1cnn(S(=O)(=O)c2cccc(Cl)c2)c1=O)c1ccc(Cl)cn1 [Compound 11-574] | 40 | 50 | 80 | 90 |
| CCN(CC)C(=O)n1cnn(S(=O)(=O)c2ccc(Cl)cc2)c1=O [Compound 11-576] | 0 | 0 | 0 | 40 |
| CC(C)N(C(=O)n1cnn(S(=O)(=O)c2ccc(Cl)cc2)c1=O)c1ccccc1 [Compound 11-577] | 0 | 0 | 60 | 40 |
| CC(C)N(C(=O)n1cnn(S(=O)(=O)c2ccc(Cl)cc2)c1=O)c1ccccc1F [Compound 11-578] | 80 | 90 | 80 | 90 |
| CC(C)N(C(=O)n1cnn(S(=O)(=O)c2ccc(Cl)cc2)c1=O)c1c(F)c(F)cc(F)c1F [Compound 11-593] | 60 | 30 | 70 | 80 |
| CC(C)N(C(=O)n1cnn(S(=O)(=O)c2ccc(Cl)cc2)c1=O)c1ccc(F)cc1Cl [Compound 11-595] | 70 | 60 | 90 | 90 |
| Cc1ccc(S(=O)(=O)n2ncn(C(=O)N(c3ccc(Cl)cc3Br)C(C)C)c2=O)cc1 [Compound 11-649] | 60 | 60 | 70 | 90 |
| Cc1ccc(S(=O)(=O)n2ncn(C(=O)N(c3ccc(Cl)cc3C)C(C)C)c2=O)cc1 [Compound 11-652] | 80 | 90 | 80 | 90 |
| CC(C)N(C(=O)n1cnn(S(=O)(=O)c2ccc(C(C)(C)C)cc2)c1=O)c1ccc(Br)cc1Cl [Compound 11-693] | 60 | 60 | 60 | 80 |
| CC(C)N(C(=O)n1cnn(S(=O)(=O)c2ccc(C(C)(C)C)cc2)c1=O)c1ccc(C(F)(F)F)cc1F [Compound 11-699] | 70 | 30 | 90 | 90 |
| CC(C)N(C(=O)n1cnn(S(=O)(=O)c2cccc(C(F)(F)F)c2)c1=O)c1ccc(F)c(F)c1F [Compound 11-726] | 30 | 30 | 90 | 100 |
| CC(C)N(C(=O)n1cnn(S(=O)(=O)c2cccc(C(F)(F)F)c2)c1=O)c1c(F)cc(F)cc1F [Compound 11-727] | 60 | 80 | 80 | 90 |
| CC(C)N(C(=O)n1cnn(S(=O)(=O)c2ccc(C(F)(F)F)cc2)c1=O)c1ccc(F)cc1F [Compound 11-749] | 70 | 70 | 70 | 60 |
| CC(C)N(C(=O)n1cnn(S(=O)(=O)c2c(F)cccc2F)c1=O)c1ccc(F)cc1Cl [Compound 11-780] | 60 | 100 | 100 | 60 |
| Cc1ccc(N(C(=O)n2cnn(S(=O)(=O)c3c(F)cccc3F)c2=O)C(C)C)c(F)c1 [Compound 11-787] | 80 | 90 | 80 | 90 |
| CC(C)N(C(=O)n1cnn(S(=O)(=O)c2c(F)cccc2F)c1=O)c1ccc(C(F)(F)F)cc1F [Compound 11-790] | 30 | 90 | 90 | 80 |
| CC(C)N(C(=O)n1cnn(S(=O)(=O)c2c(F)c(F)c(F)c(F)c2F)c1=O)c1ccc(F)c(F)c1F [Compound 11-814] | 70 | 30 | 90 | 70 |
| Cc1cc(C)c(S(=O)(=O)n2ncn(C(=O)N(c3c(F)cccc3F)C(C)C)c2=O)c(C)c1 [Compound 11-865] | 70 | 70 | 70 | 80 |
| Cc1cc(C)c(S(=O)(=O)n2ncn(C(=O)N(c3ccc(Cl)cc3C)C(C)C)c2=O)c(C)c1 [Compound 11-878] | 80 | 90 | 80 | 90 |
| Cc1cc(C)c(S(=O)(=O)n2ncn(C(=O)N(c3ccc(C(F)(F)F)cc3F)C(C)C)c2=O)c(C)c1 [Compound 11-880] | 100 | 30 | 80 | 80 |
